Our source for the IC50 and EC50 values is ChEMBL document CHEMBL5137097, “A Warhead Substitution Study on the Coronavirus Main Protease Inhibitor Nirmatrelvir” (ACS Med Chem Lett, 2022).

The target in assay [1] is Replicase polyprotein 1ab (Human coronavirus 229E, UniProt P0C6X1). Put plainly: Inhibition of full length C terminal His-tagged Human coronavirus 229E 3CLpro expressed in Escherichia coli Rosetta (DE3) cells using (DABCYL)KTSAVLQSGFRKM(Glu)(EDANS) peptide as substrate preincubated for 30 mins followed by substrate addition and measured after 1.5 hrs by FRET assay.
Sequence of Replicase polyprotein 1ab (Human coronavirus 229E, UniProt P0C6X1) (P0C6X1 2966-3267 limits assumed): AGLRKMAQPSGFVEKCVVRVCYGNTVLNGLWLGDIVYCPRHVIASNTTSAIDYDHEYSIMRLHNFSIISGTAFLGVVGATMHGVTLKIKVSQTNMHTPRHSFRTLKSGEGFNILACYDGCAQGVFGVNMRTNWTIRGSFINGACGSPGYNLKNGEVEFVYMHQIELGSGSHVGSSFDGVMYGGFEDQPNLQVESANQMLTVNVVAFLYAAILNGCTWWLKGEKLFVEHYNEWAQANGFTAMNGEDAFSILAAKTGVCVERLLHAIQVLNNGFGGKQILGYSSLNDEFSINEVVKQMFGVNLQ
Assay [2] addresses Replicase polyprotein 1ab (Severe acute respiratory syndrome coronavirus 2, UniProt P0DTD1). Put plainly: Inhibition of full length SARS-CoV-2 3CLpro expressed in Escherichia coli BL21 (DE3) cells using (DABCYL)KTSAVLQSGFRKM(Glu)(EDANS) peptide as substrate preincubated for 30 mins followed by substrate addition and measured after 1.5 hrs by FRET assay.
A short description of assay [3]: Antiviral activity against Human coronavirus 229E infected in human MRC5 cells assessed as […] cell viability measured after 4 days by CellTiter-Glo luminescence assay. Format: functional, cell-based. The following applies: MRC5, 96 h. On the technique in general: ATP-based viability assays read luminescence as a measure of living cells.

The IC50 is the concentration that inhibits the measured activity by half. Lower therefore signals greater potency in that assay. As for `CC(C)(C)[C@H](NC(=O)C(F)(F)F)C(=O)N1C[C@H]2[C@@H]([C@H]1C(=O)NCCC1CCNC1=O)C2(C)C` (some centres not stated), the IC50 in assay [1] and in assay [2] was greater than 100000 nM throughout.
Usually EC50 stands for the midpoint of the concentration-response curve. Take `CC(C)(C)[C@H](NC(=O)C(F)(F)F)C(=O)N1C[C@H]2[C@@H]([C@H]1C(=O)N[C@H](C#N)C[C@@H]1CCNC1=O)C2(C)C`: in assay [3], the EC50 is 212 nM.
For the compound `CC(C)(C)[C@H](NC(=O)C(F)(F)F)C(=O)N1C[C@H]2[C@@H]([C@H]1C(=O)N[C@H](C=O)C[C@@H]1CCNC1=O)C2(C)C`, the IC50 in assay [1] was 16 nM; in assay [2] it was 10 nM. Further, the EC50 in assay [3] worked out at 770 nM.
On to `CC(C)(C)[C@H](NC(=O)C(F)(F)F)C(=O)N1C[C@H]2[C@@H]([C@H]1C(=O)N[C@H](CO)C[C@@H]1CCNC1=O)C2(C)C`, for which the IC50 in assay [1] and in assay [2] was greater than 100000 nM in each case.
Turning to `CC(C)(C)[C@H](NC(=O)C(F)(F)F)C(=O)N1C[C@H]2[C@@H]([C@H]1C(=O)N[C@@H](C[C@@H]1CCNC1=O)C(N)=O)C2(C)C`, the IC50 in assay [1] and in assay [2] was greater than 100000 nM throughout.
For `CC(C)(C)[C@H](NC(=O)C(F)(F)F)C(=O)N1C[C@H]2[C@@H]([C@H]1C(=O)N[C@@H](C[C@@H]1CCNC1=O)C(=O)C(=O)NC1CC1)C2(C)C`, the values for the IC50 in assay [1] and in assay [2] were 70 nM and 19 nM, respectively. Moreover, the EC50 in assay [3] turned out to be 2360 nM.
In the case of `CC(C)(C)[C@H](NC(=O)C(F)(F)F)C(=O)N1C[C@H]2[C@@H]([C@H]1C(=O)N[C@@H](C[C@@H]1CCNC1=O)C(=O)COCc1ccccc1)C2(C)C`, the IC50 in assay [1] amounted to 467 nM; in assay [2], 27 nM. In assay [3], the concentration giving a half-maximal response (EC50) is 513 nM.
`CC(C)(C)[C@H](NC(=O)C(F)(F)F)C(=O)N1C[C@H]2[C@@H]([C@H]1C(=O)N[C@@H](C[C@@H]1CCNC1=O)C(=O)CO)C2(C)C` showed an IC50 in assay [1] of 13 nM. Also, in assay [3], the EC50 amounted to 193 nM.
As to `CC(C)(C)[C@H](NC(=O)C(F)(F)F)C(=O)N1C[C@H]2[C@@H]([C@H]1C(=O)N[C@@H](C[C@@H]1CCNC1=O)C(=O)c1nc3ccccc3s1)C2(C)C`, the half-inhibitory concentration (IC50) in assay [1] is 239 nM. Moreover, in assay [3], the EC50 was found to be 242 nM.
For `COC(=O)[C@H](C[C@@H]1CCNC1=O)NC(=O)[C@@H]1[C@@H]2[C@H](CN1C(=O)[C@@H](NC(=O)C(F)(F)F)C(C)(C)C)C2(C)C`, the IC50 in assay [1] and in assay [2] was greater than 100000 nM each time.
